Laboratory results published in patent US8415469B2, “Compounds and methods for kinase modulation, and indications therefor” (Plexxikon Inc., priority 2005, dated 2013).

Tests used:
Assay type in all cases: biochemical
[1] = biological target: T1, B-Raf (Homo sapiens, UniProt P15056); assay: AlphaScreen kinase assay, B-Raf; conditions: read-out: IC50, activity toward kinase B-Raf
T1 construct: purchased Upstate Biotechnology
Experimental: (§3) AlphaScreen assays were done using compounds dissolved in DMSO to a concentration of 20 mM. The compounds were diluted accordingly to the desired final concentrations in each sample well, using 1:3 serial dilution for a total of 8 concentration points. Plates were prepared such that each kinase reaction is 20 μl in 1× kinase buffer, 5% DMSO and 10 μM ATP. After incubation of the kinase reaction for 1 hour at room temperature, 5 μl of donor beads in stop buffer (50 mM EDTA in 1× kinase buffer) was added, the sample was mixed and incubated for 20 minutes at room temperature before adding 5 μl of acceptor beads in stop buffer. The samples were incubated for 60 minutes at room temperature and the signal per well was read on AlphaQuest reader.

[2] = biological target: T2, c-Raf-1 (Homo sapiens, UniProt P04049); assay: AlphaScreen kinase assay, c-Raf-1; conditions: read-out: IC50, activity toward kinase c-Raf-1
T2 construct: purchased Upstate Biotechnology
T2 sequence (P04049 whole entry): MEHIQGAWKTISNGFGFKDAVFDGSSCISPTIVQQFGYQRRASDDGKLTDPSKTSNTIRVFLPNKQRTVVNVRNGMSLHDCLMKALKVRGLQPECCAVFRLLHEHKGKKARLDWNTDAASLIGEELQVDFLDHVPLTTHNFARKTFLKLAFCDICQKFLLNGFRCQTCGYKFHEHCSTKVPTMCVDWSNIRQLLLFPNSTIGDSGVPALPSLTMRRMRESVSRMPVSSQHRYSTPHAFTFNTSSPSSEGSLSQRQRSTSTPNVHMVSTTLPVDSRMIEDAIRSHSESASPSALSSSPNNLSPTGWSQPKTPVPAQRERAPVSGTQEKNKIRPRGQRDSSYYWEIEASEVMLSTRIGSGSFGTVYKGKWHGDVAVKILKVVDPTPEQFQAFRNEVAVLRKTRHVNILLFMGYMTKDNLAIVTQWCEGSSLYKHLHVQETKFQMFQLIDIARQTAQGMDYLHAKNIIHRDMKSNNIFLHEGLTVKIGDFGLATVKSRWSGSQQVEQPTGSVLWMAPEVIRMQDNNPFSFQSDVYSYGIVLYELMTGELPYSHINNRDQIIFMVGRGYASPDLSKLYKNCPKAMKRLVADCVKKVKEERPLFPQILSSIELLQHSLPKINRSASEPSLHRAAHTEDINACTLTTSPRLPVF

[3] = biological target: T3, Kit (Homo sapiens, UniProt P10721); assay: AlphaScreen kinase assay, Kit; conditions: read-out: IC50, activity toward kinase Kit
T3 construct: P1332.N6 BI PTP KIT M552-K948-X COD; His6 (N); made in house; host or cells: E. coli (PTP1B co-expressed)
T3 sequence (P10721 with tags, fused parts or gaps): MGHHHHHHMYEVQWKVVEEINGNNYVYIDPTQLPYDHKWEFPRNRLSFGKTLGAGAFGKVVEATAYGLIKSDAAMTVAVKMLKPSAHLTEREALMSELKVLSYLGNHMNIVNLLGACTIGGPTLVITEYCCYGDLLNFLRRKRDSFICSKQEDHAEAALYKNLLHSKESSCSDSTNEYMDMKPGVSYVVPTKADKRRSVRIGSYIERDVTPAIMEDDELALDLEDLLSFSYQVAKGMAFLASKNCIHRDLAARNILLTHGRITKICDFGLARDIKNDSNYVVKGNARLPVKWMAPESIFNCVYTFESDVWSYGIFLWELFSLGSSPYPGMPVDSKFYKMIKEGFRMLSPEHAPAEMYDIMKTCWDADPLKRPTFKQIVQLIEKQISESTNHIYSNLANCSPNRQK

[4] = biological target: T4, Pyk2 (Homo sapiens, UniProt Q14289); assay: AlphaScreen kinase assay, Pyk2; conditions: read-out: IC50, activity toward kinase Pyk2
T4 construct: purchased Upstate Biotechnology
T4 sequence (Q14289 whole entry): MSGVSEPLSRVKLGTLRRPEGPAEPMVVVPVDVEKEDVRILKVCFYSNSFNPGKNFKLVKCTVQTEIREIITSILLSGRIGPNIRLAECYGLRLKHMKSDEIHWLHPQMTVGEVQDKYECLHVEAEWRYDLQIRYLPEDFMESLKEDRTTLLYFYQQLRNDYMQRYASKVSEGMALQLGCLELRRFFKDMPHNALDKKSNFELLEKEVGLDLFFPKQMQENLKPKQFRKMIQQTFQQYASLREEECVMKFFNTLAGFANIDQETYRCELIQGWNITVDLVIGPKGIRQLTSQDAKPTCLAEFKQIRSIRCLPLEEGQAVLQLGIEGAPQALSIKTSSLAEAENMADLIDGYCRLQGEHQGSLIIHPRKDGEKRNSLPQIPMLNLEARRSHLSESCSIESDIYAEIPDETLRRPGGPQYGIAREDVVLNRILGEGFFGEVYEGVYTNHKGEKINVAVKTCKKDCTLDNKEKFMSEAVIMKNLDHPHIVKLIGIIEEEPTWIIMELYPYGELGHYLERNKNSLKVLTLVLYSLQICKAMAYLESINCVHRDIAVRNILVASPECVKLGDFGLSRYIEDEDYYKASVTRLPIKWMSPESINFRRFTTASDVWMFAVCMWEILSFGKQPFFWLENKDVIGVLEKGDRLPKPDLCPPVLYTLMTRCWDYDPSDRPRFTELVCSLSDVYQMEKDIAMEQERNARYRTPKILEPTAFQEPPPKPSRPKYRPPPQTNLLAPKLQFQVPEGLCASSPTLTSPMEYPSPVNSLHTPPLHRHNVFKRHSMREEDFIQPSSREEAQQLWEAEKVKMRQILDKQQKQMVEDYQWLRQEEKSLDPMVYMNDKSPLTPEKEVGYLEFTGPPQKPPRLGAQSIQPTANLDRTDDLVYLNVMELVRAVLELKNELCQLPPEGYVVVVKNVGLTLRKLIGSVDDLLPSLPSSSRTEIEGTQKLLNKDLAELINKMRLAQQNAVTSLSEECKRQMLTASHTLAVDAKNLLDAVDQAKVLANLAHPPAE
Experimental: as §3

[5] = biological target: Akt3 (Homo sapiens, UniProt Q9Y243); assay: AlphaScreen kinase assay, Akt3; conditions: read-out: IC50, activity toward kinase Akt3
Source text: (§1) AlphaScreen assay was used to screen additional kinases. The assay is similarly dependent on the phosphorylation of a peptide substrate. In this assay, an antibody that recognizes phosphorylated substrate is bound to an acceptor bead. The peptide substrate is attached to biotin, which binds to a donor head that contains streptavidin. Thus phosphorylated substrate is bound by antibody and streptavidin, bringing the donor and acceptor heads into close proximity when kinase is not inhibited. The donor produces singlet oxygen which results in emission from the acceptor when they are in close proximity. Conversely, when kinase is inhibited, the donor and acceptor beads are not associated and the emission from the acceptor is reduced.
(§2) AlphaScreen assays were done using compounds dissolved in DMSO to a concentration of 20 mM. The compounds were diluted accordingly to the desired final concentrations in each sample well, using 1:3 serial dilution for a total of 8 concentration points.

[6] = biological target: T5, Abl (Homo sapiens, UniProt P00519); assay: AlphaScreen kinase assay, Abl; conditions: read-out: activity toward kinase Abl, IC50
T5 construct: P1121. pET-SPEC BI-PTP Abl G227-V515-X; His6 (N); made in house; host or cells: E. coli (PTP1B co-expressed)
T5 sequence (P00519 with tags, fused parts or gaps): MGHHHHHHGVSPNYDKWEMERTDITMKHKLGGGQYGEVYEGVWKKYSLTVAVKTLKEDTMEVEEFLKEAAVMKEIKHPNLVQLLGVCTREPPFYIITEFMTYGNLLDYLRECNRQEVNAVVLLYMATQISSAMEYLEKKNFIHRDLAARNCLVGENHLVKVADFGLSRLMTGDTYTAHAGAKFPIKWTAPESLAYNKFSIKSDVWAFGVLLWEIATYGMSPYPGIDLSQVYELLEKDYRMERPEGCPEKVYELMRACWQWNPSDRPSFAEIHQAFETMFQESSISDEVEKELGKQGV
Source text: as §1, §2

[7] = biological target: T6, B-Raf V600E (Homo sapiens, UniProt P15056, V600E); assay: AlphaScreen kinase assay, B-Raf V600E; conditions: read-out: IC50, activity toward kinase B-Raf V600E
T6 construct: P4254. pFastBacBD-CDC37 BRAF D437-K722-X, V600E; His6 with pFastBac HT leader (TEV site) (N); made in house; host or cells: Sf9 (baculovirus; chaperone CDC37 co-expressed)
T6 sequence (P15056 with tags, fused parts or gaps V600E): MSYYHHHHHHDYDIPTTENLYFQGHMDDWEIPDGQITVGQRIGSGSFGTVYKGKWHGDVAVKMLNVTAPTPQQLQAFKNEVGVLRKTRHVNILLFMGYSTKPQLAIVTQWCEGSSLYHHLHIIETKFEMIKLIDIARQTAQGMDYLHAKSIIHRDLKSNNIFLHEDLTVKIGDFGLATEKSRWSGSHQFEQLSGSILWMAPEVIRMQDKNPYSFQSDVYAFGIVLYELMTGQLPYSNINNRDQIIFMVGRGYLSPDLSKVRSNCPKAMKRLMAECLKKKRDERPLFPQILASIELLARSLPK
Experimental: as §3

[8] = biological target: T7, FGFR1 (Homo sapiens, UniProt P11362, C488A/C584S); assay: AlphaScreen kinase assay, FGFR1; conditions: read-out: IC50, activity toward kinase FGFR
T7 construct: P1351.pET N6 BI-PTP FGFR A458-E765-X C488A, C584S; made in house; host or cells: E. coli (PTP1B co-expressed)
T7 sequence (P11362 458-765 C488A/C584S): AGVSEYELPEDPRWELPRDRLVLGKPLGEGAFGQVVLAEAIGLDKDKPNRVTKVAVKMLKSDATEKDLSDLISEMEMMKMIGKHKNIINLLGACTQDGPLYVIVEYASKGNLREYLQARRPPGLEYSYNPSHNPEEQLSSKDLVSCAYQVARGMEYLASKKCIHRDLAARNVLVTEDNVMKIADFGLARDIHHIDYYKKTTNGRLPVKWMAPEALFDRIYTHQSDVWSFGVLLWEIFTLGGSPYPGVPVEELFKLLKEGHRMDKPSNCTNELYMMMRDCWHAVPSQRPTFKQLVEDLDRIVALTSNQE
Experimental: as §3

[9] = biological target: T8, Ret (Homo sapiens, UniProt P07949); assay: AlphaScreen kinase assay, Ret; conditions: read-out: IC50, activity toward kinase Ret
T8 construct: P1378.pET-SF BI-PTP RET H661-R1012 HIS; made in house
T8 sequence (P07949 with tags, fused parts or gaps): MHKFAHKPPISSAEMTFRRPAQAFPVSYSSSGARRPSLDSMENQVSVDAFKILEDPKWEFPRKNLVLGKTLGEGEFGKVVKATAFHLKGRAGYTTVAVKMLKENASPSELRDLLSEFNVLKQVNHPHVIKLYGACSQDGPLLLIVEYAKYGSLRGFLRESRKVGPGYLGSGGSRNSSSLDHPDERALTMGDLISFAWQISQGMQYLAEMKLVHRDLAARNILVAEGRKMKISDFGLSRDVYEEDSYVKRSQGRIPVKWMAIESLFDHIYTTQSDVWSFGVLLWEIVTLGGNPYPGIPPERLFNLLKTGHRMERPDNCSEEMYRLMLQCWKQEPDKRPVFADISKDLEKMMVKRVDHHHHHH

[10] = biological target: T9, Jnk3 (Homo sapiens, UniProt P53779); assay: AlphaScreen kinase assay, Jnk3; conditions: read-out: IC50, activity toward kinase Jnk3
T9 construct: purchased Upstate Biotechnology
T9 sequence (P53779 whole entry): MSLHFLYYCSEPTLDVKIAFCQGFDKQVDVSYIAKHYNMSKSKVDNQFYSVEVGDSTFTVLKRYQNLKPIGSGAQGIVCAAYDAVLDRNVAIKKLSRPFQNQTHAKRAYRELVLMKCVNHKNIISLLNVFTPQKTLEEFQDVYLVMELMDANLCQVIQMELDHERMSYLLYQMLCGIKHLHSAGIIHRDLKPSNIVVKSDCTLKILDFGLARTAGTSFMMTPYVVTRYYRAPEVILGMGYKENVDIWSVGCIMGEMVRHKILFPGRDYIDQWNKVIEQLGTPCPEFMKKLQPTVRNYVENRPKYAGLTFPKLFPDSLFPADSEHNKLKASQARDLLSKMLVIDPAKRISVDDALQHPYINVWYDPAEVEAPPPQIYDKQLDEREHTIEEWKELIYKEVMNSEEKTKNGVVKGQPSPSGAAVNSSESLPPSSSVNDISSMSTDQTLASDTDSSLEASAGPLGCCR

[11] = biological target: T10, Flt1 (Homo sapiens, UniProt P17948); assay: AlphaScreen kinase assay, Flt1; conditions: read-out: IC50, activity toward kinase Flt1
T10 construct: P1826.pETN6 BI-PTP FLT1 M799-D1165-X WT; His6 (N); made in house; host or cells: E. coli (PTP1B co-expressed)
T10 sequence (P17948 with tags, fused parts or gaps): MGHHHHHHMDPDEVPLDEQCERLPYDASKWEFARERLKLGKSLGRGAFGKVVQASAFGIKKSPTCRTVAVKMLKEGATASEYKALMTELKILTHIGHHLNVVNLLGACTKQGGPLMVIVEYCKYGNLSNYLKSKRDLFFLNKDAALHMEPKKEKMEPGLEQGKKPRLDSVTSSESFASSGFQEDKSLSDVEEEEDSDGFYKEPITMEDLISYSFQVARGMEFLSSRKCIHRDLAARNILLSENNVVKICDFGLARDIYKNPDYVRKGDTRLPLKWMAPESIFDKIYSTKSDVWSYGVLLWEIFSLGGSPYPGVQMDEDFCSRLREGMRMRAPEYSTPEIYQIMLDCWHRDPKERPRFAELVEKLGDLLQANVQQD

[12] = biological target: T11, Src (Homo sapiens, UniProt P12931); assay: AlphaScreen kinase assay, Src; conditions: read-out: IC50, activity toward kinase Src
T11 construct: P1144. pET-N6 BI-PTP SRC V86-L536-X; made in house
T11 sequence (P12931 with tags, fused parts or gaps): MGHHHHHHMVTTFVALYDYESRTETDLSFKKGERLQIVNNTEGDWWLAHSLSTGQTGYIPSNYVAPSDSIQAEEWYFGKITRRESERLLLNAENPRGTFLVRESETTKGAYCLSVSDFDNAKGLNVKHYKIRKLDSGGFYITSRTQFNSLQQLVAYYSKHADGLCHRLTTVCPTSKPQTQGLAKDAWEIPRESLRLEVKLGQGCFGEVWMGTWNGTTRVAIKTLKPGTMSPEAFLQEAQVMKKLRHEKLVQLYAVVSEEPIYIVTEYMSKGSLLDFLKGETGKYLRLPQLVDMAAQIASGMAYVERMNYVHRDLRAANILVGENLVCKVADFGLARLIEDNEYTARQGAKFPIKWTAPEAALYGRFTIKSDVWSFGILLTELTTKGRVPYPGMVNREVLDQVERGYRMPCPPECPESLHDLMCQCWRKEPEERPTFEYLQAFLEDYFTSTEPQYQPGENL

[13] = biological target: MAP4K4 (Homo sapiens, UniProt O95819); assay: AlphaScreen kinase assay, MAP4K4; conditions: read-out: IC50, activity toward kinase MAP4K4
Experimental: as §3

[14] = biological target: T12, Fak (Homo sapiens, UniProt Q05397); assay: AlphaScreen kinase assay, Fak; conditions: read-out: IC50, activity toward kinase Fak
T12 construct: P1358.pFastBacHtb FAK S411-Q686-X; His6 with pFastBacHTb leader (TEV site) (N); made in house; host or cells: Sf9 (baculovirus)

[15] = biological target: T13, Jnk1 (Homo sapiens, UniProt P45983); assay: AlphaScreen kinase assay, Jnk1; conditions: read-out: IC50, activity toward kinase Jnk1
T13 construct: purchased Upstate Biotechnology
T13 sequence (P45983 whole entry): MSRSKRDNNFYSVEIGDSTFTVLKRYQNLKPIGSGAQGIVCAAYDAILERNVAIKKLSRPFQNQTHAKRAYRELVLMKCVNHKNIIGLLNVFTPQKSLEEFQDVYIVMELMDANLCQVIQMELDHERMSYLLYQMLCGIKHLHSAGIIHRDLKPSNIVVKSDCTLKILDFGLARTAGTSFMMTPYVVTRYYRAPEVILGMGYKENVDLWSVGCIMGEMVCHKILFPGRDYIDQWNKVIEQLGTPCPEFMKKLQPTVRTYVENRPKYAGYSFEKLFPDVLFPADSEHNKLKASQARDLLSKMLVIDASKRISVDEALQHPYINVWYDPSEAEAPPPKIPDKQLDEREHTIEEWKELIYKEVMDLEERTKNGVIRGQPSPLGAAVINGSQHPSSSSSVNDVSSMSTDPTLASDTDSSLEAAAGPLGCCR

[16] = biological target: T14, Jnk2 (Homo sapiens, UniProt P45984); assay: AlphaScreen kinase assay, Jnk2; conditions: read-out: IC50, activity toward kinase Jnk2
T14 construct: purchased Roche Protein Expression Group (Indianapolis, IN)
How it was run: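 Stock 20 mM compound in DMSO, diluted 1:3 serially to 8 final concentrations. Kinase phosphorylates biotinylated peptide; donor (streptavidin) and acceptor (anti-phospho antibody) beads then associate. Reduced acceptor emission indicates inhibition.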

[17] = biological target: T15, Kdr (Homo sapiens, UniProt P35968); assay: Z'-Lyte FRET kinase assay (Invitrogen), Kdr; conditions: read-out: IC50, activity toward kinase Kdr
T15 construct: purchased Invitrogen (assay run by Invitrogen)

[18] = biological target: T16, Fms (Homo sapiens, UniProt P07333); assay: AlphaScreen kinase assay, Fms; conditions: read-out: IC50, activity toward kinase Fms
T16 construct: purchased Upstate Biotechnology
T16 sequence (P07333 20-972): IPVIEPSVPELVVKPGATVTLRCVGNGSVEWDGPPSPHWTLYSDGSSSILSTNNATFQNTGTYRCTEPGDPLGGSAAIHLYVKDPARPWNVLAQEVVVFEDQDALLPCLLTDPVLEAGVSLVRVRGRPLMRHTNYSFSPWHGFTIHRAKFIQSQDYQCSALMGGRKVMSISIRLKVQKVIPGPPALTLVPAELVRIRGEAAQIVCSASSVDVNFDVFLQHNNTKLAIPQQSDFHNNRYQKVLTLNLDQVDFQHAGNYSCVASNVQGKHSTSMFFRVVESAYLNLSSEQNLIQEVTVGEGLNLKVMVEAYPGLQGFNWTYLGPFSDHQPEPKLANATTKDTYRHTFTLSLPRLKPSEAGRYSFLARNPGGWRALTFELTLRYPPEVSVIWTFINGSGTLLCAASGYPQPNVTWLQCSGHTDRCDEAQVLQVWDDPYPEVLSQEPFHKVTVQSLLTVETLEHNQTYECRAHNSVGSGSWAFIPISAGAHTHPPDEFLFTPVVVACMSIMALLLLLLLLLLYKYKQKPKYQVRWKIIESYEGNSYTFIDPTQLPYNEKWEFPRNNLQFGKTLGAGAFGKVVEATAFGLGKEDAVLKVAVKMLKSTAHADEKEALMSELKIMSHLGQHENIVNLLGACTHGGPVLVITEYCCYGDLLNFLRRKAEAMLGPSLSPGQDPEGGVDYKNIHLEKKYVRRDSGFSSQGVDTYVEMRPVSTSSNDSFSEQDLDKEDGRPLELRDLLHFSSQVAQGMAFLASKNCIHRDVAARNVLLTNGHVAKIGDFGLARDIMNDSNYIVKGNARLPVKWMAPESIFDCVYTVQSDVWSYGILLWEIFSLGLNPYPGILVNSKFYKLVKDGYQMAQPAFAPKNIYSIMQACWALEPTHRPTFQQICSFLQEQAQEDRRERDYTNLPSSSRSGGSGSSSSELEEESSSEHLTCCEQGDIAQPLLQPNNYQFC

[19] = biological target: T17, Btk (Homo sapiens, UniProt Q06187); assay: Z'-Lyte FRET kinase assay (Invitrogen), Btk; conditions: read-out: IC50, activity toward kinase Btk
T17 construct: purchased Invitrogen (assay run by Invitrogen)

Measured: IC50

Clc1ccc(Nc2ccnc3[nH]ccc23)cc1 [Compound P-0978]
≤ 10 µM: [1] | [2] | [3] | [4] | [5]

Cc1ccc(F)cc1C(=O)c1c[nH]c2ncc(-c3cccnc3)cc12 [Compound P-0693]
≤ 10 µM: [6] | [1] | [7] | [8] | [3] | [9]

O=C(c1cc(O)ccc1F)c1c[nH]c2nccc(Cl)c12 [Compound P-0794]
≤ 10 µM: [6] | [1] | [7] | [2] | [3] | [9]

O=C(c1cc(O)ccc1F)c1c[nH]c2ncc(-c3ccsc3)cc12 [Compound P-0604]
≤ 10 µM: [6] | [1] | [7] | [2] | [10] | [3] | [9]

Cc1ccc(F)cc1C(=O)c1c[nH]c2ncc(-c3ccsc3)cc12 [Compound P-0671]
≤ 10 µM: [6] | [7] | [8] | [10] | [3] | [9]

Cc1cc(C(=O)c2c[nH]c3ncc(-c4cccc(N)c4)cc23)n(C)n1 [Compound P-1115]
≤ 10 µM: [6] | [9]

CCN(CC)c1ccc(Nc2ccnc3[nH]ccc23)cc1 [Compound P-0866]
≤ 10 µM: [1] | [7] | [2] | [11] | [3] | [4] | [12] | [5]

COc1ccc(-c2c[nH]c3ncccc23)cc1OC1CCCC1 [Compound P-0573]
≤ 10 µM: [7] | [5] | [13]

CCCS(=O)(=O)Nc1ccc(F)c(Cc2c[nH]c3ncc(C(C)C)cc23)c1F [Compound P-1288]
≤ 10 µM: [1] | [7] | [2] | [14] | [8] | [15] | [4] | [12] | [5]

Cc1ccc(S(=O)(=O)NCc2c[nH]c3ncc(-c4ccsc4)cc23)cc1 [Compound P-1127]
≤ 10 µM: [6]

Cc1ccccc1C(=O)c1c[nH]c2ncc(-c3cccnc3)cc12 [Compound P-0623]
≤ 10 µM: [6] | [7] | [8] | [16] | [17] | [3] | [9] | [12]

c1csc(Sc2c[nH]c3ncccc23)c1 [Compound P-0529]
≤ 10 µM: [6] | [4]

Cc1ccccc1C(=O)c1c[nH]c2ncc(-c3ccsc3)cc12 [Compound P-0244]
≤ 10 µM: [6] | [7] | [8] | [11] | [18] | [15] | [10] | [3] | [9] | [12]

Clc1cccc(Nc2ccnc3[nH]ccc23)c1 [Compound P-0924]
≤ 10 µM: [1] | [2] | [3] | [4] | [5]

CN(C)c1cccc(Nc2ccnc3[nH]ccc23)c1 [Compound P-0861]
≤ 10 µM: [1] | [7] | [2] | [3] | [4] | [5]

COc1ccc(S(=O)(=O)Nc2ccc(F)c(C(=O)c3c[nH]c4ncccc34)c2F)cc1 [Compound P-0958, N-[2,4-Difluoro-3-(1H-pyrrolo[2,3-b]pyridine-3-carbonyl)-phenyl]-4-methoxy-benzenesulfonamide]
not listed: [4] | [6] | [9] | [10] | [14] | [16] | [17] | [19]
≤ 10 µM: all other assays above

NC(=O)c1cccc(-c2cnc3[nH]cc(C(=O)c4ccc(O)cc4F)c3c2)c1 [Compound P-1459]
≤ 10 µM: [1] | [7] | [19] | [14] | [8] | [18] | [15] | [12] | [5]

Cc1ccccc1C(=O)c1c[nH]c2ncc(-c3ccc(C(N)=O)cc3)cc12 [Compound P-1011]
≤ 10 µM: [6] | [10] | [9]

CCCOc1ccc(Nc2cnc3[nH]ccc3c2)cc1 [Compound P-1010]
≤ 10 µM: [7] | [11] | [10] | [3] | [4] | [12] | [5]

CCOc1ccc(Nc2cnc3[nH]ccc3c2)cc1 [Compound P-1018]
≤ 10 µM: [7] | [8] | [11] | [10] | [3] | [4] | [5]
